The test system of the assay is T acute lymphoblastic leukemia (T-ALL) cells.

SMILES strings stand for the structures.

Experimental: Mononuclear human leukemia cells were prepared using Ficoll gradient centrifugation and cryopreserved in liquid nitrogen. The frozen cells were thawed quickly and washed with PBS to remove the cryopreservation reagent. NOD/SCID mice (Institute of Cellular and Organismic Biology, Academia Sinica) were preconditioned with 200 centigray of total body irradiation at 6-8 weeks of age. The leukemia cells were then transplanted to the preconditioned NOD/SCID mice via tail vein. The resulting leukemia blast cells, i.e., T acute lymphoblastic leukemia (T-ALL) cells and acute myelogenous leukemia (AML) cells, were recovered from spleen and used in experiments as described below.
Mice were monitored for leukemia cell engraftment and dissemination by the appearance of human CD45^+ cells in mouse peripheral blood, which were sampled weekly after the 3rd week of cell transplantation. Peripheral blood samples were taken from the tail vein and red blood cells were lysed in ammonium chloride and resuspensed in Phosphate buffered saline (PBS) plus 2% Fetal Bovine Serum (FBS) before cell staining. […] After immunostaining, cells were washed, suspended in PBS plus 2% FBS, and analyzed using FACS Calibur (BD Biosciences). […]

Regarding `CC[C@]1(O)C[C@H]2CN(CCc3c([nH]c4ccccc34)[C@@](C(=O)OC)(c3cc4c(cc3OC)N(C=O)[C@H]3[C@@](O)(C(=O)OC)[C@H](OC(C)=O)[C@]5(CC)C=CCN6CC[C@]43[C@@H]65)C2)C1` [vincristine], the average survival time (vincristine (0.5 mg/kg ip) alone, days 14, 21, 28) was 73.6 ± 7.1 days. In addition, under “vincristine (0.5 mg/kg) alone”, the “time until which CD45+ cells in the peripheral blood were not detected” value was determined as 8 weeks.

The values above are taken from patent publication US9375406B2, “Substituted pyrimidines for mobilizing cells expressing a type 4 CXC chemokine receptor” (TaiGen Biotechnology Co., Ltd., priority 2014, dated 2016).
